Results published in the NIST ThermoML archive (doi:10.1016/j.jct.2004.07.031).
“And” between values parts separate entries of the source, which are not always exact repeats. Equal values may be shown once.

Assay: molar heat capacity at constant pressure
Settings: 101.33 kPa, Crystal, PPMS instrument (Quantum Design)

O=P([O-])([O-])[O-].[Gd+3] [gadolinium orthophosphate]
Settings | molar heat capacity at constant pressure
0.525 K | 7.722 J/K/mol
0.536 K | 8.106 J/K/mol
0.547 K | 8.475 J/K/mol
0.558 K | 8.855 J/K/mol
0.569 K | 9.277 J/K/mol
0.58 K | 9.631 J/K/mol
0.591 K | 10.11 J/K/mol
0.602 K | 10.69 J/K/mol
0.614 K | 11.24 J/K/mol
0.625 K | 11.83 J/K/mol
0.637 K | 12.57 J/K/mol
0.648 K | 13.42 J/K/mol
0.659 K | 14.37 J/K/mol
0.67 K | 15.29 J/K/mol
0.681 K | 16.55 J/K/mol
0.693 K | 17.9 J/K/mol
0.703 K | 19.56 J/K/mol
0.715 K | 21.6 J/K/mol
0.726 K | 24.07 J/K/mol
0.73 K | 25.16 J/K/mol
0.733 K | 26.31 J/K/mol
0.737 K | 27.55 J/K/mol
0.738 K | 27.92 J/K/mol
0.742 K | 29.69 J/K/mol
0.743 K | 29.92 J/K/mol
0.745 K | 31.34 J/K/mol
0.747 K | 31.86 J/K/mol
0.75 K | 33.48 J/K/mol
0.751 K | 34.37 J/K/mol
0.752 K | 35.17 J/K/mol
0.755 K | 37.19 J/K/mol
0.756 K | 37.83 J/K/mol
0.758 K | 40.08 J/K/mol
0.76 K | 41.57 J/K/mol
0.763 K | 44.62 J/K/mol
0.764 K | 46.25 J/K/mol
0.765 K | 47.54 J/K/mol
0.768 K | 50.76 J/K/mol
0.77 K | 52.55 J/K/mol
0.772 K | 53.77 J/K/mol
0.773 K | 54.78 J/K/mol
0.776 K | 54.21 J/K/mol
0.777 K | 51.7 J/K/mol and 54.18 J/K/mol
0.782 K | 37.73 J/K/mol
0.783 K | 33.58 J/K/mol
0.784 K | 31.28 J/K/mol
0.786 K | 23.82 J/K/mol
0.79 K | 19.56 J/K/mol
0.791 K | 19.09 J/K/mol
0.794 K | 17.74 J/K/mol
0.796 K | 16.84 J/K/mol
0.797 K | 16.39 J/K/mol
0.799 K | 15.8 J/K/mol
0.8 K | 15.62 J/K/mol
0.804 K | 14.83 J/K/mol
0.806 K | 14.48 J/K/mol
0.816 K | 13.11 J/K/mol
0.843 K | 11.32 J/K/mol
0.867 K | 10.3 J/K/mol
0.872 K | 10.13 J/K/mol
0.882 K | 9.827 J/K/mol
0.89 K | 9.584 J/K/mol
0.892 K | 9.579 J/K/mol
0.902 K | 9.269 J/K/mol
0.912 K | 9.065 J/K/mol
0.914 K | 9.009 J/K/mol
0.922 K | 8.871 J/K/mol
0.933 K | 8.692 J/K/mol
0.939 K | 8.538 J/K/mol
0.942 K | 8.499 J/K/mol
0.952 K | 8.332 J/K/mol
0.962 K | 8.221 J/K/mol
0.963 K | 8.167 J/K/mol
0.973 K | 8.056 J/K/mol
0.983 K | 7.933 J/K/mol
0.986 K | 7.919 J/K/mol
0.993 K | 7.852 J/K/mol
1.003 K | 7.778 J/K/mol
1.01 K | 7.554 J/K/mol
1.059 K | 6.868 J/K/mol
1.141 K | 6.058 J/K/mol
1.22 K | 5.523 J/K/mol
1.301 K | 4.919 J/K/mol
1.381 K | 4.476 J/K/mol
1.461 K | 4.061 J/K/mol
1.544 K | 3.711 J/K/mol
1.619 K | 3.447 J/K/mol
1.699 K | 3.178 J/K/mol
1.78 K | 2.944 J/K/mol
1.841 K | 2.578 J/K/mol
1.86 K | 2.751 J/K/mol
1.94 K | 2.578 J/K/mol
2.02 K | 2.372 J/K/mol
2.234 K | 1.874 J/K/mol
2.648 K | 1.377 J/K/mol
3.055 K | 1.063 J/K/mol
3.464 K | 0.8457 J/K/mol
3.872 K | 0.6931 J/K/mol
4.291 K | 0.57 J/K/mol
4.675 K | 0.4911 J/K/mol
5.081 K | 0.4292 J/K/mol
5.499 K | 0.3415 J/K/mol
5.896 K | 0.3389 J/K/mol
6.3 K | 0.3079 J/K/mol
6.728 K | 0.2809 J/K/mol
7.126 K | 0.2659 J/K/mol
7.523 K | 0.2545 J/K/mol
7.936 K | 0.2483 J/K/mol
8.343 K | 0.2454 J/K/mol
8.747 K | 0.246 J/K/mol
8.971 K | 0.2476 J/K/mol
9.151 K | 0.2497 J/K/mol
9.554 K | 0.2573 J/K/mol
9.964 K | 0.2698 J/K/mol
9.976 K | 0.2696 J/K/mol
10.96 K | 0.3114 J/K/mol
11.94 K | 0.3719 J/K/mol
12.94 K | 0.4546 J/K/mol
13.93 K | 0.5628 J/K/mol
14.93 K | 0.6954 J/K/mol
15.93 K | 0.8555 J/K/mol
16.93 K | 1.039 J/K/mol
17.94 K | 1.247 J/K/mol
18.95 K | 1.476 J/K/mol
19.95 K | 1.752 J/K/mol
20.95 K | 2.036 J/K/mol
21.96 K | 2.353 J/K/mol
22.97 K | 2.692 J/K/mol
23.97 K | 3.053 J/K/mol
24.98 K | 3.44 J/K/mol
25.98 K | 3.849 J/K/mol
26.99 K | 4.279 J/K/mol
28 K | 4.714 J/K/mol
29 K | 5.169 J/K/mol
30.01 K | 5.631 J/K/mol
32 K | 6.652 J/K/mol
34 K | 7.603 J/K/mol
36.02 K | 8.663 J/K/mol
38.05 K | 9.792 J/K/mol
40.06 K | 10.89 J/K/mol
42.08 K | 12.02 J/K/mol
44.09 K | 13.17 J/K/mol
46.11 K | 14.35 J/K/mol
48.12 K | 15.55 J/K/mol
50.14 K | 16.75 J/K/mol
53.15 K | 18.58 J/K/mol
56.16 K | 20.4 J/K/mol
59.19 K | 22.22 J/K/mol
62.22 K | 24.02 J/K/mol
65.24 K | 25.8 J/K/mol
68.26 K | 27.54 J/K/mol
71.29 K | 29.29 J/K/mol
74.3 K | 31.02 J/K/mol
77.33 K | 32.72 J/K/mol
80.35 K | 34.4 J/K/mol
85.39 K | 37.09 J/K/mol
92.14 K | 40.56 J/K/mol
98.9 K | 43.87 J/K/mol
105.7 K | 47.02 J/K/mol
112.4 K | 50.06 J/K/mol
119.2 K | 53.01 J/K/mol
126 K | 55.84 J/K/mol
132.7 K | 58.53 J/K/mol
139.5 K | 61.13 J/K/mol
146.3 K | 63.67 J/K/mol
153 K | 65.98 J/K/mol
159.8 K | 68.28 J/K/mol
166.6 K | 70.53 J/K/mol
173.3 K | 72.7 J/K/mol
180.1 K | 74.71 J/K/mol
186.8 K | 76.76 J/K/mol
193.6 K | 78.76 J/K/mol
200.4 K | 80.59 J/K/mol
207.1 K | 82.32 J/K/mol
213.8 K | 84.09 J/K/mol
220.6 K | 85.76 J/K/mol
227.4 K | 87.27 J/K/mol
234.1 K | 88.95 J/K/mol
240.9 K | 90.53 J/K/mol
247.7 K | 92.18 J/K/mol
254.4 K | 93.53 J/K/mol
261.1 K | 94.92 J/K/mol
267.9 K | 96.45 J/K/mol
274.6 K | 97.84 J/K/mol
281.3 K | 98.99 J/K/mol
288.1 K | 100.29 J/K/mol
294.8 K | 101.42 J/K/mol
301.6 K | 102.56 J/K/mol
